In PMC9475448, “What a difference a methylene makes: replacing Glu with Asp or Aad in the Lys-urea-Glu pharmacophore of PSMA-targeting radioligands to reduce kidney and salivary gland uptake” (Theranostics, 2022):

System: LNCaP tumor-bearing mice
Test: Ex vivo biodistribution of 177Lu-labeled ligands in LNCaP tumor-bearing NRG mice

For [^177Lu]Lu-PSMA-617, the Adrenal glands uptake (24 h post-injection) was 0.032 ± 0.010 %IA/g, the Blood uptake (24 h post-injection) was 0.004 ± 0.001 %IA/g and the “Blood:Salivary gland uptake ratio” value (24 h post-injection) was 0.10 ± 0.02. For the same substance, the Bone uptake (24 h post-injection) was 0.009 ± 0.005 %IA/g, the Brain uptake (24 h post-injection) was 0.010 ± 0.002 %IA/g and the Fat uptake (24 h post-injection) was 0.009 ± 0.008 %IA/g. The Heart uptake (24 h post-injection) was 0.009 ± 0.003 %IA/g, the Intestines uptake (24 h post-injection) was 0.059 ± 0.039 %IA/g and the Kidneys uptake (24 h post-injection) was 0.658 ± 0.159 %IA/g. It also gave a Lacrimal glands uptake (24 h post-injection) of 0.050 ± 0.024 %IA/g, a Liver uptake (24 h post-injection) of 0.043 ± 0.027 %IA/g and a Lungs uptake (24 h post-injection) of 0.028 ± 0.005 %IA/g. For the same substance, the Muscle uptake (24 h post-injection) was 0.005 ± 0.001 %IA/g, the Pancreas uptake (24 h post-injection) was 0.008 ± 0.002 %IA/g and the Salivary glands uptake (24 h post-injection) was 0.018 ± 0.003 %IA/g. The Spleen uptake (24 h post-injection) was 0.039 ± 0.007 %IA/g, the Stomach uptake (24 h post-injection) was 0.044 ± 0.011 %IA/g and the Testes uptake (24 h post-injection) was 0.018 ± 0.003 %IA/g. For the same substance, the Tumor uptake (24 h post-injection) was 13.18 ± 3.151 %IA/g, the “Tumor:Blood uptake ratio” value (24 h post-injection) was 4045 ± 1693 and the “Tumor:Kidney uptake ratio” value (24 h post-injection) was 21.6 ± 8.83. For the same substance, the “Tumor:Muscle uptake ratio” value (24 h post-injection) was 2905 ± 453, the “Tumor:Salivary gland uptake ratio” value (24 h post-injection) was 371 ± 129 and the Adrenal glands uptake (72 h post-injection) was 0.007 ± 0.004 %IA/g. The Blood uptake (72 h post-injection) was 0.002 ± 0.001 %IA/g, the “Blood:Salivary gland uptake ratio” value (72 h post-injection) was 0.19 ± 0.08 and the Bone uptake (72 h post-injection) was 0.006 ± 0.003 %IA/g. It also gave a Brain uptake (72 h post-injection) of 0.008 ± 0.002 %IA/g, a Fat uptake (72 h post-injection) of 0.006 ± 0.012 %IA/g and a Heart uptake (72 h post-injection) of 0.004 ± 0.001 %IA/g. For the same substance, the Intestines uptake (72 h post-injection) was 0.062 ± 0.080 %IA/g, the Kidneys uptake (72 h post-injection) was 0.181 ± 0.046 %IA/g and the Lacrimal glands uptake (72 h post-injection) was 0.023 ± 0.009 %IA/g. It also gave a Liver uptake (72 h post-injection) of 0.021 ± 0.004 %IA/g, a Lungs uptake (72 h post-injection) of 0.011 ± 0.002 %IA/g and a Muscle uptake (72 h post-injection) of 0.004 ± 0.004 %IA/g. For the same substance, the Pancreas uptake (72 h post-injection) was 0.003 ± 0.001 %IA/g, the Salivary glands uptake (72 h post-injection) was 0.012 ± 0.003 %IA/g and the Spleen uptake (72 h post-injection) was 0.016 ± 0.005 %IA/g. For the same substance, the Stomach uptake (72 h post-injection) was 0.096 ± 0.155 %IA/g, the Testes uptake (72 h post-injection) was 0.014 ± 0.012 %IA/g and the Thyroid uptake (72 h post-injection) was 0.009 ± 0.002 %IA/g. For the same substance, the Tumor uptake (72 h post-injection) was 11.0±2.12 %IA/g, the “Tumor:Blood uptake ratio” value (72 h post-injection) was 5784 ± 1756 and the “Tumor:Kidney uptake ratio” value (72 h post-injection) was 62.4 ± 11.1. For the same substance, the “Tumor:Muscle uptake ratio” value (72 h post-injection) was 4712 ± 3587, the “Tumor:Salivary gland uptake ratio” value (72 h post-injection) was 969 ± 241 and the Tumor uptake (72 h post-injection, listed as [177Lu]Lu-PSMA-617) was 10.97 ± 2.122 %IA/g. The Adrenal glands uptake (120 h post-injection) was 0.005 ± 0.008 %IA/g, the Blood uptake (120 h post-injection) was 0.002 ± 0.001 %IA/g and the “Blood:Salivary gland uptake ratio” value (120 h post-injection) was 0.42 ± 0.19. For the same substance, the Bone uptake (120 h post-injection) was 0.003 ± 0.004 %IA/g, the Brain uptake (120 h post-injection) was 0.007 ± 0.001 %IA/g and the Fat uptake (120 h post-injection) was 0.002 ± 0.001 %IA/g. The Heart uptake (120 h post-injection) was 0.002 ± 0.001 %IA/g, the Intestines uptake (120 h post-injection) was 0.012 ± 0.011 %IA/g and the Kidneys uptake (120 h post-injection) was 0.111 ± 0.054 %IA/g. The Lacrimal glands uptake (120 h post-injection) was 0.021 ± 0.010 %IA/g, the Liver uptake (120 h post-injection) was 0.016 ± 0.004 %IA/g and the Lungs uptake (120 h post-injection) was 0.006 ± 0.001 %IA/g. The Muscle uptake (120 h post-injection) was 0.002 ± 0.002 %IA/g, the Pancreas uptake (120 h post-injection) was 0.001 ± 0.001 %IA/g and the Salivary glands uptake (120 h post-injection) was 0.005 ± 0.002 %IA/g. The Spleen uptake (120 h post-injection) was 0.013 ± 0.004 %IA/g, the Stomach uptake (120 h post-injection) was 0.013 ± 0.013 %IA/g and the Testes uptake (120 h post-injection) was 0.006 ± 0.002 %IA/g. The Thyroid uptake (120 h post-injection) was 0.005 ± 0.001 %IA/g, the Tumor uptake (120 h post-injection) was 12.3±5.52 %IA/g and the “Tumor:Blood uptake ratio” value (120 h post-injection) was 8895 ± 4881. The “Tumor:Kidney uptake ratio” value (120 h post-injection) was 126 ± 76.0, the “Tumor:Muscle uptake ratio” value (120 h post-injection) was 11627 ± 7865 and the “Tumor:Salivary gland uptake ratio” value (120 h post-injection) was 3324 ± 2257. The Tumor uptake (120 h post-injection, listed as [177Lu]Lu-PSMA-617) was 12.25 ± 5.519 %IA/g.
